Experimental findings from PubChem BioAssay AID1912 (The Scripps Research Institute Molecular Screening Center, 2009) are described below.

Active and inactive are the calls of the source. The rule behind the calls is not given here.

This assay deals with Luciferin 4-monooxygenase (Photinus pyralis) (UniProt P08659). The assay can be described thus: native FLuc inhibition dose response – biochemical, luminescence, artefact control for HSP90 inhibitor project (AID 1912). Particulars: purified firefly luciferase.
Sequence of Luciferin 4-monooxygenase (Photinus pyralis) (P08659 whole entry, looked up): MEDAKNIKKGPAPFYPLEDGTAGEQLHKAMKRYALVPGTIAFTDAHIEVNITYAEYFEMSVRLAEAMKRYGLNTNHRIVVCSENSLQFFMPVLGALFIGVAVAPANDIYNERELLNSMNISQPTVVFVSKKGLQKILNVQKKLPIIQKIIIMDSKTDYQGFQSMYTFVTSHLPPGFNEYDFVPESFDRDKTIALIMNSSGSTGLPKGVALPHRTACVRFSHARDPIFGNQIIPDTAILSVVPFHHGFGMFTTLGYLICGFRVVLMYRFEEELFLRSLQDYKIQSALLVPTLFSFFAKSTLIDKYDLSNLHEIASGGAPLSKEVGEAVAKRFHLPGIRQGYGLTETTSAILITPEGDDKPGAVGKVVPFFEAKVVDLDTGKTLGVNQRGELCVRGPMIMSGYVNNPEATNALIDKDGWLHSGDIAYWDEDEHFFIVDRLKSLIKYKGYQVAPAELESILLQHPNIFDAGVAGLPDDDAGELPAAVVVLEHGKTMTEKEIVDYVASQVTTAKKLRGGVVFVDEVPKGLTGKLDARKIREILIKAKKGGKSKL
One may read the IC50 as the concentration that gives 50% inhibition. As to `CCc1ccc(S(=O)(=O)/N=C2\C=C(Nc3ccc(O)cc3)C(=O)c3ccccc32)cc1`, the IC50 was > 60 µM (inactive).
With `O=C(CN1C(=O)c2ccccc2S1(=O)=O)c1ccccc1Cl` the entry was “inactive”; with `COc1ccc(-c2cn3c(C)c(C(=O)Nc4cccc(C)n4)sc3n2)cc1`, “inactive”.
With `C=CCOc1c(CNc2cccc(C(=O)O)c2)cccc1OC` the figure was > 60 µM (inactive); with `C#CCn1cc(/C=C2\NC(=O)NC2=O)c2ccccc21`, > 60 µM (inactive).
Under `O=C(O)c1cc(N/N=C/c2cccnc2)ccc1Cl` stands > 60 µM (inactive); under `CCOC(=O)c1sc(NC(=O)c2ccc(C)o2)nc1C`, > 60 µM (inactive); under `Cc1[nH]n(-c2ccccc2)c(=O)c1N=Nc1ccc(C(N)=O)cc1`, > 60 µM (inactive).
Regarding `O=c1oc2ccc(Cl)cc2nc1/C=C(\O)c1ccco1`, the IC50 is > 60 µM (inactive).
For `COC(=O)NCCOC(=O)N(O)c1ccc(Br)cc1`, the IC50 was > 60 µM (inactive).
For the molecule `O=C(O)c1cc(N/N=C/c2c[nH]c3ccccc23)ccc1Cl`, the IC50 was > 60 µM (inactive).
Under `CCOC(=O)C1=C(c2ccc(OC)cc2)C(=O)c2ccccc2C1=O` stands > 60 µM (inactive).
With `COc1ccc(C(=O)Oc2ccc(/C=N/Nc3ccc(Cl)c(C(=O)O)c3)cc2OC)cc1`, the IC50 is > 60 µM (inactive).
Under `Cc1cc2ccccc2n1CCNC(=O)c1ccccc1` stands > 60 µM (inactive); under `CC(C)Sc1nc(SCC(=O)NCc2ccco2)c2c3c(sc2n1)COC(C)(C)C3`, > 60 µM (inactive); under `CCc1ccc(S(=O)(=O)/N=C2\C=C(Nc3ccc(C(=O)O)cc3)C(=O)c3ccccc32)cc1`, > 60 µM (inactive).
With `COc1ccccc1Nc1nn2c(=O)c3ccc(C(=O)NCc4cccnc4)cc3nc2s1`, the IC50 is > 60 µM (inactive).
Turning to `COC(=O)c1ccc(N/C=C/C(=O)c2ccccc2)cc1`, the IC50 result is “inactive”.
Under `COc1ccc(/C=C/c2noc(-c3ccccc3OC(C)=O)n2)cc1` stands “inactive”; under `CS(=O)(=O)c1ccc(-c2cn3cc(C(=O)O)ccc3n2)cc1`, “inactive”; under `CC(=O)Oc1ccc(Nc2ccccc2)cc1`, > 60 µM (inactive).
Take `O=C1C(Nc2ccc(O)cc2)=C/C(=N/S(=O)(=O)c2cccs2)c2ccccc21`: the IC50 entry is “inactive”.
`CCOc1ccc(-c2nc(CN3CCCCC3CCn3cccn3)c(C)o2)cc1` (stereo not drawn): the IC50 was > 60 µM (inactive).
In the case of `COc1cc(N2Cc3ccccc3C2)ccc1C=O`, the IC50 was > 60 µM (inactive).
With `CC(=O)Nc1ccc(OS(=O)(=O)c2ccc([N+](=O)[O-])cc2)cc1` the figure was > 60 µM (inactive).
With `COc1cccc(-c2cc3nc4c(c(NCC(C)(C)CN(C)C)n3n2)CCCC4)c1` the figure was > 60 µM (inactive); with `O=C(OCc1ccccn1)c1ccc(COc2ccc3ccccc3c2)o1`, > 60 µM (inactive).
On to `O=C(CSc1ncccc1C(=O)O)c1ccc2ccccc2c1`, for which the IC50 entry is “inactive”.
Under `COC(=O)c1ccc(COc2ccc3c(c2)CCC3)o1` stands > 60 µM (inactive); under `[O-]/[N+](=C\c1ccco1)c1ccc(Cl)cc1`, > 60 µM (inactive).
Consider `Cc1ccc(S(=O)(=O)/N=C2\C=C(Nc3cccc(C(=O)O)c3)C(=O)c3ccccc32)c(C)c1`, for which the IC50 was > 60 µM (inactive).
For the molecule `COc1cc(/C=N/Nc2ccc(Cl)c(C(=O)O)c2)ccc1OC(=O)c1cccs1`, the IC50 is > 60 µM (inactive).
With `Cc1c(-c2nc(-c3ccc(C(F)(F)F)cc3)no2)n(C)oc1=O` the figure was > 60 µM (inactive); with `O=c1oc2ccc(Cl)cc2nc1/C=C(\O)c1cccs1`, > 60 µM (inactive); with `COC(=O)c1ccccc1OCCCOc1ccc(C=O)cc1OC`, > 60 µM (inactive).
Under `Cc1cc(C(=O)Cn2nc(C(=O)O)c3ccccc3c2=O)c(C)n1CC(F)(F)F` stands > 60 µM (inactive); under `COc1cc(/C=N/Nc2ccc(Cl)c(C(=O)O)c2)ccc1OC(=O)c1ccco1`, > 60 µM (inactive).
With `CC(C)(C)c1ccc(C(=O)c2c[nH]c(C(=O)O)c2)cc1` the entry was “inactive”; with `CCC(C)c1ccc(OCc2ccc(C(=O)OC)o2)cc1` (stereo not drawn), > 60 µM (inactive).
For the molecule `C=CCOC(=O)c1sc(NC(=O)c2ccc(OC)cc2)nc1C`, the IC50 is > 60 µM (inactive).
With `O=C(CN1C(=O)c2ccccc2S1(=O)=O)N1CCc2ccccc21` the figure was > 60 µM (inactive); with `CCN(CC)c1ccc2cc(NC(=O)CCC(=O)O)c(=O)oc2c1`, > 60 µM (inactive).
As to `CCc1ccc(S(=O)(=O)/N=C2\C=C(Nc3cccc(C(=O)O)c3)C(=O)c3ccccc32)cc1`, the IC50 was > 60 µM (inactive).
With `CCCCn1c(NC(=O)c2ccccc2Cl)c(C#N)c2nc3ccccc3nc21` the figure was > 60 µM (inactive).
With `Nc1c(-c2ccccc2)cnn1-c1ccc(C(=O)O)cc1` the entry was “inactive”.
Regarding `CCOC(=O)c1csc(NC(=O)c2ccc3c(c2)OCCO3)n1`, the IC50 is > 60 µM (inactive).
Under `O=C(CN1C(=O)c2ccccc2S1(=O)=O)c1ccc2c(c1)OCCCO2` stands “inactive”.
With `O=C(O)c1ccc(S(=O)(=O)/N=C2\C=C(Nc3ccccc3F)C(=O)c3ccccc32)cc1` the figure was > 60 µM (inactive).
With `CCN(CC)c1ccc(SS(=O)(=O)O)cc1` the figure was > 60 µM (inactive); with `COC(=O)c1ccc(NC(=O)c2ccc(C)cc2)o1`, > 60 µM (inactive).
On to `Cc1nc(CS(=O)(=O)c2ccc(Cl)cc2)sc1C(=O)O`, for which the IC50 is > 60 µM (inactive).
Under `CC(=O)Oc1ccccc1/C=C/c1nc2ccccc2c(=O)o1` stands > 60 µM (inactive).
For the molecule `COC(=O)C1CCN(C(=O)c2ccc3nc(-c4cccc(OC)c4)oc3c2)CC1`, the IC50 is > 60 µM (inactive).
Take `CC(=O)Nc1ccc(NC2=C/C(=N/S(=O)(=O)c3cccs3)c3ccccc3C2=O)cc1`: the IC50 was > 60 µM (inactive).
With `Cc1ccc2oc(=O)c(/C=C(\O)c3ccco3)nc2c1` the figure was > 60 µM (inactive); with `CC1CCN(c2ccc(-c3cccc(NC(=O)C(F)(F)F)c3)nn2)CC1`, > 60 µM (inactive).
With `CCCCOc1ccc(-c2cc(C(=O)NNC(=S)NCC)c3ccccc3n2)cc1` the entry was “inactive”; with `O=C(O)c1cccc(-n2c(O)c(C=C3N=c4ccccc4=N3)sc2=S)c1`, > 60 µM (inactive); with `Cc1c(-c2nc(-c3ccc(C(C)(C)C)cc3)no2)n(C)oc1=O`, > 60 µM (inactive).
With `Cc1ccc(OCc2ccc(C(=O)O)o2)cc1C` the entry was “inactive”.
For the molecule `COC(=O)C[C@]1(C(=O)OC)CN(C#N)N(c2ccc(Cl)cc2)C12c1ccccc1-c1ccccc12`, the IC50 was > 60 µM (inactive).
Under `CCc1ccc(Nc2n[n+](-c3ccccc3)c(-c3ccc(N(CC)CC)cc3)s2)cc1` stands > 60 µM (inactive); under `C=CCn1c(NS(=O)(=O)c2ccccc2)c(S(=O)(=O)c2ccc(C)cc2)c2nc3ccccc3nc21`, > 60 µM (inactive).
